# Literature values as cited in US20240245685A1, “PHOSPHODIESTERASE-5 INHIBITOR COMBINATIONS, METHODS OF MAKING, AND METHODS OF USE THEREOF” (VK Research Associates Inc, priority 2020, published 2024).
# Read-outs that look alike come from different tables or passages of the source.
# Assays:
# [1] = for median time to maximum concentration (t max): oral administration
# [2] = oral tadalafil therapy
# [3] = not given; remark: listed apart in the source
smiles,measurement,setting,value
COc1ccc(CN=c2[nH]c(N3CCC[C@H]3CO)ncc2C(=O)NCc2ncccn2)cc1Cl [avanafil],absorption profile when administered with a high-fat meal,[1],not found
CCCc1nn(C)c2c(=O)[nH]c(-c3cc(S(=O)(=O)N4CCN(C)CC4)ccc3OCC)nc12 [sildenafil],median time to maximum concentration (t max),[1],1 h
CN1CC(=O)N2[C@H](c3ccc4c(c3)OCO4)c3[nH]c4ccccc4c3C[C@@H]2C1=O [tadalafil],"duration of delayed onset side effects, e.g. gastritis and back pain",[2],up to 3 hours
same,Dyspepsia Duration,maximum doses,15.5 h
same,Dyspepsia Mean Duration,maximum doses,11.2 h
same,Headache Duration,maximum doses,24.3 h
same,Headache Mean Duration,maximum doses,17.0 h
same,duration of side effects versus sildenafil,patients taking tadalafil versus sildenafil,more prolonged
same,frequency of headache and dyspepsia versus sildenafil,tadalafil versus sildenafil,more common
same,absorption profile when administered with a high-fat meal,[1],not found
same,Dyspepsia incidence,[3]; tadalafil 5 mg,4%
same,Headache incidence,[3]; tadalafil 5 mg,11%
same,Dyspepsia incidence,[3]; tadalafil 10 mg,8%
same,Headache incidence,[3]; tadalafil 10 mg,11%
same,Dyspepsia incidence,[3]; tadalafil 20 mg,10%
same,Headache incidence,[3]; tadalafil 20 mg,15%
CCCc1nc(C)c2c(=O)[nH]c(-c3cc(S(=O)(=O)N4CCN(CC)CC4)ccc3OCC)nn12 [vardenafil],median time to maximum concentration (t max),[1],1 h
